Our source for the Kd, ΔTm and inhibition values is ChEMBL document CHEMBL3396965, “Peptide inhibitors of the Escherichia coli DsbA oxidative machinery essential for bacterial virulence” (J Med Chem, 2015).

The source made the active and inactive calls. The rule behind the calls is not given here. Square brackets hold non-standard residues; d marks the D form. Peptide text beside a SMILES is read from it. Dip = N[C@H](C(=O)O)C(c1ccccc1)c1ccccc1; hPhe = N[C@@H](CCc1ccccc1)C(=O)O; Tic = O=C(O)[C@@H]1Cc2ccccc2CN1; Pip = O=C(O)[C@@H]1CCCCN1; hSer = N[C@@H](CCO)C(=O)O; Nva = CCC[C@H](N)C(=O)O

For assay [1], the target named is T1, Thiol:disulfide interchange protein DsbA (Escherichia coli (strain K12), UniProt P0AEG4).
T1 sequence (P0AEG4 whole entry): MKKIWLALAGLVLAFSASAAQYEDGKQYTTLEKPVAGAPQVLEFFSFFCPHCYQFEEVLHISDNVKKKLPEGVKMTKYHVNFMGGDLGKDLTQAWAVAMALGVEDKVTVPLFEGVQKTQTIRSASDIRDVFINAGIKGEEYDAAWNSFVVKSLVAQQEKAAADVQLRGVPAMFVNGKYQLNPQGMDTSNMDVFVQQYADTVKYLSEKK
Briefly: Binding affinity to oxidized Escherichia coli DsbA by isothermal titration calorimetry assay. Background: In ITC the heat of successive injections is recorded.

Assay [2] deals with T2, Thiol:disulfide interchange protein DsbA (Escherichia coli (strain K12)) (UniProt P0AEG4).
T2 sequence (whole entry): T1 sequence (P0AEG4 whole entry)
Briefly: Binding affinity to Escherichia coli DsbA assessed as change in melting temperature at 125 uM by Thermal shift assay.

Assay [3] concerns the target T2, Thiol:disulfide interchange protein DsbA (Escherichia coli (strain K12)). Briefly: Binding affinity to Escherichia coli DsbA assessed as change in melting temperature at 250 uM by Thermal shift assay.
The target is the same in assay [4]. Briefly: Binding affinity to Escherichia coli DsbA assessed as change in melting temperature at 500 uM by Thermal shift assay.
Assay [5] shares this target. Briefly: Binding affinity to Escherichia coli DsbA assessed as change in melting temperature at 1 mM by Thermal shift assay.
The target is the same in assay [6]. Briefly: Binding affinity to Escherichia coli DsbA assessed as change in melting temperature at 2 mM by Thermal shift assay.
Assay [7] shares this target. Briefly: Binding affinity to Escherichia coli DsbA assessed as change in melting temperature at 4 mM by Thermal shift assay.
For assay [8], the target named is T3, Thioredoxin reductase 1, cytoplasmic (Homo sapiens) (UniProt Q16881).
T3 sequence (whole entry): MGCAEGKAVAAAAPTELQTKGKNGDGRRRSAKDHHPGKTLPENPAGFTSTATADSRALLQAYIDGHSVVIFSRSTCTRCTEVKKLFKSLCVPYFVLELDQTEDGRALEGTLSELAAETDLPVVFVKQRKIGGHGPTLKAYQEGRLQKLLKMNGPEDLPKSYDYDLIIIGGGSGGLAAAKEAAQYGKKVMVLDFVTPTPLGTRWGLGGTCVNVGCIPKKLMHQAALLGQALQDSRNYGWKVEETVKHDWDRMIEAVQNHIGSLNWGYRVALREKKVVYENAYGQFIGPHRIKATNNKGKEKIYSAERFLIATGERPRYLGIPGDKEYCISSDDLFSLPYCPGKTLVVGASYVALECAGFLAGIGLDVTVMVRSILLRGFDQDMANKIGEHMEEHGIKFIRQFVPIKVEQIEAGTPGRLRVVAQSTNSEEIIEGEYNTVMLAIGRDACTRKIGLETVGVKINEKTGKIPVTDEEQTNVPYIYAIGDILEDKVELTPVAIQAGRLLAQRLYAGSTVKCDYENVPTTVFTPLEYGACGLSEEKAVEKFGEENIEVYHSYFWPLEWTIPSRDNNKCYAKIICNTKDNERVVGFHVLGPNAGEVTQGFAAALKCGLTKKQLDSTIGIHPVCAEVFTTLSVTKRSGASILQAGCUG
Briefly: Inhibition of oxidized human TXR1 reductase activity by insulin reduction assay.

What is called Kd is the concentration at which binding is half-saturated. As for `CC(=O)N1CCC[C@H]1C(=O)N[C@@H](CO)C(=O)N1CCC[C@H]1C(=O)N[C@@H](Cc1c[nH]c2ccccc12)C(=O)N[C@@H](C)C(=O)N[C@H](C(=O)N[C@@H](CCO)C(N)=O)[C@@H](C)O` (Ac-PSPWAT[hSer]-NH2), the Kd result in assay [1] is “Not Active”. Turning to Ac-PSPWATCAF-NH2, in assay [1] (read-out: Kd), the Kd worked out at 3.1 µM.

In the case of Ac-PSPWATIDF-NH2, the Kd entry in assay [1] is “Not Active”. Regarding Ac-PFATCDF-NH2, in assay [1] (read-out: Kd), the dissociation constant Kd turned out to be 5.9 µM. On the same count and under the same terms, the result for Ac-ASPWATCDF-NH2 reads 2.7 µM. As for `CCC[C@H](NC(=O)[C@@H](NC(=O)[C@H](C)NC(=O)[C@H](Cc1c[nH]c2ccccc12)NC(=O)[C@@H]1CCCN1C(=O)[C@H](CO)NC(=O)[C@@H]1CCCN1C(C)=O)[C@@H](C)O)C(N)=O` (Ac-PSPWAT[Nva]-NH2), the Kd result in assay [1] is “Not Active”. On to `CC(=O)N1CCC[C@H]1C(=O)N[C@@H](CO)C(=O)N1CCC[C@H]1C(=O)N[C@@H](CCc1ccccc1)C(=O)N[C@@H](C)C(=O)N[C@H](C(=O)N[C@@H](CS)C(N)=O)[C@@H](C)O` (Ac-PSP[hPhe]ATC-NH2), for which the Kd in assay [1] (read-out: Kd) is 14.9 µM. On the same count and under the same terms, the result for Ac-PSPAATCDF-NH2 reads 5.8 µM. For the compound Ac-PSPWATN-NH2, in assay [1], the Kd entry was “Not Active”.

On to Ac-PSPWATCDA-NH2, for which the Kd in assay [1] (read-out: Kd) turned out to be 4.4 µM. Still for that read-out and setting: the result for Ac-PSPWATC-NH2 reads 18 µM. Same read-out and setting: the result for `CC(=O)N1CCC[C@H]1C(=O)N[C@@H](CO)C(=O)N1Cc2ccccc2C[C@H]1C(=O)N[C@@H](Cc1c[nH]c2ccccc12)C(=O)N[C@@H](C)C(=O)N[C@H](C(=O)N[C@@H](CS)C(N)=O)[C@@H](C)O` (Ac-PS[Tic]WATC-NH2) reads 13.1 µM. Usually ΔTm stands for the shift of the melting midpoint relative to a reference. Consider Ac-PWATSDS-NH2, for which the ΔTm came out at 0.1 °C in assay [2]; 0.2 °C in assay [3]; 0.2 °C in assay [4]; 0.6 °C in assay [5]; 1.5 °C in assay [6]; 2.9 °C in assay [7]. In addition, the Kd entry in assay [1] was “Not Active”.

For the compound `CC(=O)N1CCC[C@H]1C(=O)N[C@@H](CCc1ccccc1)C(=O)N[C@@H](C)C(=O)N[C@H](C(=O)N[C@@H](CS)C(=O)N[C@@H](CC(=O)O)C(=O)N[C@@H](CO)C(N)=O)[C@@H](C)O` (Ac-P[hPhe]ATCDS-NH2), the Kd in assay [1] (read-out: Kd) was 8.3 µM.

Consider Ac-PSPWAACDF-NH2, for which the Kd in assay [1] (read-out: Kd) was determined as 11.3 µM. Regarding `CC(=O)N1CCC[C@H]1C(=O)N[C@@H](Cc1c[nH]c2ccccc12)C(=O)N[C@@H](C)C(=O)N[C@H](C(=O)N[C@@H](CS)C(=O)N[C@@H](CC(=O)O)C(=O)N[C@@H](CO)C(N)=O)[C@@H](C)O`, the inhibition result in assay [8] is “inactive”. For the compound Ac-PFATCDS-NH2, the ΔTm in assay [2] came to 0.6 °C; in assay [3], 1.7 °C; in assay [4], 3.3 °C; in assay [5], 5.3 °C; in assay [6] it was 7.2 °C; in assay [7], 9 °C. The Kd in assay [1] (read-out: Kd) was found to be 13.1 µM. On to Ac-PWATCDF-NH2, for which the Kd in assay [1] (read-out: Kd) came to 3 µM. The same measure, in the same setting: under `CC(=O)N1CCC[C@H]1C(=O)N[C@@H](CO)C(=O)N1CCCC[C@H]1C(=O)N[C@@H](Cc1c[nH]c2ccccc12)C(=O)N[C@@H](C)C(=O)N[C@H](C(=O)N[C@@H](CS)C(N)=O)[C@@H](C)O` (Ac-PS[Pip]WATC-NH2) stands 12 µM; under Ac-PSAWATCDF-NH2, 5.5 µM; under Ac-PAPWATCDF-NH2, 2.8 µM. Ac-PSPWATADF-NH2: in assay [1], the equilibrium dissociation constant (Kd) entry is “Not Active”. On the same count and under the same terms, under Ac-PSPWATSDF-NH2 stands “Not Active”. Regarding `CC(=O)N1CCC[C@H]1C(=O)N[C@@H](CO)C(=O)N1CCC[C@H]1C(=O)N[C@H](C(=O)N[C@@H](C)C(=O)N[C@H](C(=O)N[C@@H](CS)C(N)=O)[C@@H](C)O)C(c1ccccc1)c1ccccc1` (Ac-PSP[Dip]ATC-NH2), the Kd in assay [1] (read-out: Kd) amounted to 9.7 µM.

Turning to Ac-PSPWATM-NH2, the Kd entry in assay [1] is given as “Not Active”. Still for that read-out and setting: under Ac-PSPWATVDF-NH2 stands “Not Active”. On to Ac-PSPWATCD-NH2, for which the Kd in assay [1] (read-out: Kd) amounted to 10.7 µM. Still for that read-out and setting: the result for Ac-SPWATCDF-NH2 reads 2.2 µM. Still for that read-out and setting: under Ac-PSPWATCDF-NH2 stands 2.9 µM.
